“Also recorded” adds a separate entry of the source.
Tests used:
NOTCH1 = NOTCH1 processing and activation by western blot (FL-N1, TM-N1, ICN1); format: cell-based, human; settings: 24 h
From the text: We previously described that the SERCA inhibitors thapsigargin and cyclopiazonic acid impair NOTCH1 maturation leading to an accumulation of full-length, unprocessed polypeptides in the endoplasmic reticulum/Golgi subcellular compartment. An immediate consequence of SERCA inhibition is a decrement in NOTCH1 protein display on the surface of T-ALL cells. […] To further support the hypothesis that Thap-OH impairs mutant NOTCH1 maturation, we evaluated levels of full-length, transmembrane and activated NOTCH1 (ICN1) by WB. Lysates from T-ALL cell lines treated with 1 μM Thap-OH were immunoblotted with an antibody specific for the cytoplasmic portion of NOTCH1 that recognizes both unprocessed NOTCH1 (FL-N1) (˜270 kDa) and the furin-processed transmembrane subunit (TM-N1) (˜110 kDa).
Both Folate-Thap (JQ-FT) and Thap-OH were tested in T-ALL cell lines with 24 h treatment. […] Lysates were prepared after treatment with indicated doses of thapsigargin, JQ-FT or Thap-OH for 24 hr. The blot shown was stained with an antibody against the C-terminus of NOTCH1 that recognizes both the furin-processed NOTCH1 transmembrane subunit (TM) and the unprocessed NOTCH1 precursor (FL) (FIG. 2A). GAPDH was used as a loading control. Western blots were stained with antibodies specific for γ-secretase-cleaved NOTCH 1 ([…], Cell Signaling, Beverly, Mass., USA), or the C-terminus of NOTCH1 (SC-6014 (C-20) Santa Cruz Biotechnology, Santa Cruz, Calif., USA). Control stains were carried out with antibodies specific for GAPDH (137179, Santa Cruz Biotechnology). Blots were developed with anti-rabbit-HRP (NA9340V, Amersham, Pittsburgh, Pa., USA) or anti-mouse-HRP (NA9340V or NA9310V, Amersham). Staining was quantified using ImageQuant TI V 7.0 (GE Health Care, Piscataway, N.J., USA).

T-ALL cell lines [1] = assay: T-ALL cell viability / growth (ATP content, Cell-Titer Glo); format: cell-based, human; settings: for cell growth / proliferation: T-ALL cell lines, 10 μM
Procedure: Thus, cell lines carrying NOTCH1 alleles with HD domain, mutations were more sensitive to Thap-OH than cells with WT NOTCH1 alleles.
As a further test of the idea that JQ-FT acts by preventing NOTCH1 activation in a manner similar to thapsigargin, the NOTCH1-dependent T-ALL cell lines RPMI-8402 were transduced with empty MigRI vector or with ICN1, which lies downstream of the γ-secretase cleavage step in Notch activation. Viral supernatant production and retroviral infections were performed as described for MigRI retroviral vectors (Aster, J. C., et al. “Essential roles for ankyrin repeat and transactivation domains in induction of T-cell leukemia by NOTCH1.” Mol. Cell. Biol. 2000; 20:7505-7515). Transduction efficiency for MigRI was monitored by assessing GFP expression with a FACScan flow cytometer (BD, Franklin Lakes, N.J., USA) (Aster et al., Mol. Cell. Biol. 2000; 20:7505-7515). After viral infection, GFP-positive cells were sorted by flow cytometry with a FACSAria II (BD, Franklin Lakes, N.J., USA). […] Therefore, JQ-FT can recapitulate the Thapsigargin effect with the delivery mechanism of folate.
The NOTCH loss was measured via flow cytometry. […] The recapitulation of the thapsigargin effect by JQ-FT is hypothesized to be due to the delivery strategy introduced by folate. […] Here cell growth was assessed using the Promega Cell-Titer Glo ATP-based assay (Promega, Madison, Wis., USA). Luminescence was measured using a Fluostar Omega instrument (BMG-labtech, Ortenberg, Germany).
The effects of JQ-FT in a panel of T-ALL cell lines that contain activating mutations in the HD domain of NOTCH1 and/or protein stabilizing deletions within the PEST degradation domain.

PDX T-ALL cells = assay: JQ-FT treatment of patient-derived xenograft (PDX) T-ALL cells in vitro; format: cell-based, human
Procedure: Errors bars denote mean±SD of 4 replicates. […] The blot was stained with an antibody against the C-terminus of NOTCH1 that recognizes both the furin-processed NOTCH1 transmembrane subunit (TM) and the unprocessed NOTCH1 precursor (FL). The immunoblot was also stained with anti-ICN1 antibody. GAPDH was used as a loading control. […] Error bars indicate the mean±SD of 4 replicates. Data were analyzed using the ΔΔCT method and plotted as a percentage relative to the control gene RPL13A. Statistical significance among groups for treated vs. vehicle (DMSO) samples (***P≤0.0001) was determined by one-way ANOVA with Bonferroni's correction for multiple comparison testing. […] The blot was stained with an antibody against the C-terminus of NOTCH1 (N1) that recognizes both the furin-processed NOTCH1 transmembrane subunit (TM). GAPDH was used as a loading control. […] Cells were probed with an anti-NOTCH1 antibody (green) and nuclei were counterstained with DAPI. […] Error bars indicate the mean±SD of 4 replicates. Data were analyzed using the ΔΔCT method and plotted as a percentage relative to the control gene RPL13A. Statistical significance (***P≤0.001. ****P≤0.0001) for treated vs. vehicle (DMSO) was determined by one-way ANOVA with Bonferroni's correction for multiple comparison testing.
To assess the translational significance of these findings, we studied patient-derived xenografts (PDX) from T-ALL patients at the Dana-Farber Cancer Institute.

[2] = Maximal tolerated dose in mice; format: in vivo
Procedure: Though the JQ-FT conjugate has not, as yet, been optimized for pharmacologic properties, we are eager to explore the utility of the compound as an in vivo chemical probe, while assessing putative tolerability of folate-conjugated thapsigargins. We first established the maximal tolerated dose (MTD) of JQ-FT as 60 mg/kg/day in mice, as administered by daily intraperitoneal injection. […] We therefore initiated treatment studies of JQ-FT (60 mg/kg IP daily) in mice with established T-ALL.

T-ALL cell lines [3] = assay: T-ALL cell viability / growth (ATP content, Cell-Titer Glo); format: cell-based, human
[4] = NOTCH1-mutated PDX cells, 24 hours

SMILES: C/C=C(/C)C(=O)O[C@H]1C(C)=C2C([C@@H]1OC(=O)CCCCCCC)[C@@](C)(OC(C)=O)C[C@H](OC(=O)CC[C@H](NC(=O)c1ccc(NCc3cnc4nc(N)[nH]c(=O)c4n3)cc1)C(=O)O)[C@@]1(O)[C@H]2OC(=O)[C@@]1(C)O (stereo partly shown) [JQ-FT]
- furin-processed transmembrane NOTCH1 subunit (TM-N1) level (NOTCH1; T-ALL cell lines with HD mutations, Thap-OH at 1 μM): loss of trans-membrane NOTCH; also recorded: decrement of transmembrane NOTCH1
- ICN1 level (NOTCH1; T-ALL cell lines): Loss of ICN1
- unprocessed full-length NOTCH1 (FL-N1) level (NOTCH1; T-ALL cell lines): accumulation of full length NOTCH; also recorded: accumulation of full length NOTCH1
- rescue of loss of viability by exogenous ICN1 (T-ALL cell lines [1]; RPMI 8402 transduced with MigR1-ICN1 vs empty vector): overexpressing an exogenous ICN1 partially rescues the observed phenotype; also recorded: attenuated the growth inhibitory effects of JQ-FT
- cell growth / proliferation (T-ALL cell lines [1]): impaired cell growth
- cell growth / proliferation (T-ALL cell lines [1]; listed as Folate-Thap): antiproliferation effect; also recorded: arrest of cell proliferation
- ICN1 in NOTCH1-mutated PDX cells (PDX T-ALL cells; [4]): depletion of detectable ICN1
- transmembrane NOTCH1 in NOTCH1-mutated PDX cells (PDX T-ALL cells; [4]): loss of transmembrane NOTCH1
- expression of NOTCH1 target genes DTX and MYC in NOTCH1 mutant PDX samples (PDX T-ALL cells; NOTCH1 mutant samples, 24 hours): decreased
- NOTCH1 processing in WT NOTCH1 PDX cells (PDX T-ALL cells; PDX T-ALL cells possessing WT NOTCH1): no effect was observed
- NOTCH1 target gene transcription in WT PDX samples (PDX T-ALL cells; WT PDX samples, 24 hours): no transcriptional changes were observed
- MTD relative to MTD of unconjugated thapsigargin [2]: 150 fold
- MTD ([2]; mouse, in vivo, ip, daily intraperitoneal injection): 60 mg/kg/day
- cell cycle (T-ALL cell lines [3]; T-ALL cell lines, 10 μM): G1 cell cycle arrest
- induction of apoptosis in T-ALL cell lines (T-ALL cell lines [3]; T-ALL cell lines, 10 μM): rapid induction of apoptosis
- effect on cell viability in FR-overexpressing cell lines (T-ALL cell lines [3]; cell lines overexpressing FR1 or FR2): greater effect on cell viability

Source: patent US10525139B2, “Folate-conjugated molecules for delivery of toxic small molecule inhibitors to cancer cells and methods of use” (priority 2014, dated 2020)
